What all share (assay): DTP human tumour cell line panel, 48 h
Test [1] has as its system A498 renal.
The subject of test [2] is BT-549 breast.
The subject of test [3] is CAKI-1 renal.
For test [4], the system named is MDA-MB-435.
Test [5] concerns NCI-H23 lung.
Test [6] has as its system OVCAR-4 ovarian.
In test [7] the test system is RPMI-8226 leukemia.
Test [8] concerns SF-539 CNS.
For test [9], the system named is SNB-75 CNS.
Test [10] deals with T-47D breast.
Test [11] relates to UACC-62 melanoma.

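Values below derive from 48-hour exposures of cells grown in 96-well plates, with endpoints linearly interpolated between the two concentrations bracketing the appropriate inhibition level. TGI marks complete inhibition of growth.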 A value given as a limit tells only on which side of the number the result lay.

As a reminder, the TGI is the concentration giving total growth inhibition. A high value points to lower sensitivity of the cells. `CC1Cn2c(nc3ccccc32)NC1=O` (centres undefined): the TGI in [1], in test [2], in [3], in test [4], in [5] and in test [6] was greater than 100 µM in each case. The TGI in [7], in test [8], in test [9], in test [10] and in test [11] was greater than 100 µM in each case.
On to `Cc1ccc2c(=O)cc(-c3cccs3)[nH]c2n1`, for which the TGI in test [1] was greater than 100 µM; in test [2], greater than 100 µM; in test [3], greater than 100 µM; in test [4] it was 5.65 µM; in [5] it was greater than 63.6 µM; in [6] it was greater than 100 µM. The concentration for total growth inhibition (TGI) was greater than 49.4 µM in test [7]; 33.1 µM in [8]; 63.3 µM in [9]; greater than 67.7 µM in test [10]; greater than 100 µM in test [11].
As for `CCC1(C(=O)OC(C)(C)C)OC12C(C)CCCC2C` (centres undefined), the TGI in test [1], in test [2], in test [3], in [4], in test [5] and in test [6] was greater than 100 µM each time. Further, the TGI in test [7] is 49.9 µM; in test [8], greater than 100 µM; in [9], 97.7 µM; in [10], greater than 100 µM; in [11], greater than 100 µM.
Turning to `NCCSc1nc2ccccc2c(=O)n1-c1ccccc1`, the TGI in test [1], in test [2], in test [3], in [4], in test [5] and in [6] was greater than 100 µM in each case. The TGI in test [8], in test [9], in test [10] and in test [11] was greater than 100 µM throughout.
As for `O=c1[nH]/c(=C/c2ccc(OCc3ccccc3)cn2)c(=O)[nH]/c1=C/c1ccc(O)cc1`, the TGI is greater than 76.7 µM in test [1]; 8.63 µM in test [2]; 3.08 µM in test [3]; 1.64 µM in test [4]; 5.44 µM in test [5]; 0.59 µM in test [6]. The TGI in test [7] is 9.95 µM; in test [8], 2.09 µM; in test [9] it was 3.05 µM; in [10], greater than 63.8 µM; in test [11], greater than 100 µM.
With `CC1(CF)SCc2nc3ccccc3n21` (centres undefined), the TGI in [1], in [2], in test [3], in [4], in test [5] and in test [7] was greater than 100 µM in each case. The TGI in [8], in [9], in test [10] and in test [11] was greater than 100 µM each time.
With `CC1=NN2C(=N)/C(=C/c3ccco3)C(=O)N=C2S1`, the TGI in test [1], in test [2], in [3], in [4], in [5] and in test [6] was greater than 100 µM in each case. Besides, the TGI in test [7], in test [8], in test [9], in test [10] and in test [11] was greater than 100 µM in each case.
Take `COC(=O)[C@H](Cc1ccccc1)NC(=O)[C@H](Cc1ccccc1)NC(=O)[C@@H]1CCCN1C(=O)N[C@H]1C2C=CC(C2)C1C(=O)N1CCC[C@H]1C(=O)N[C@@H](C)C(=O)N[C@H](C(=O)OC)C(C)C` (some centres undefined): the TGI in test [1], in test [2], in test [3], in [4], in test [5] and in test [6] was greater than 100 µM throughout. Besides, the TGI in test [9], in test [10] and in [11] was greater than 100 µM each time.
Turning to `Nc1c(Cl)ncnc1N[C@@H]1C[C@H]1CO`, the TGI in test [1], in [2], in [3], in test [4], in test [5] and in [6] was greater than 100 µM in each case. The TGI in test [8], in test [9], in test [10] and in test [11] was greater than 100 µM in each case.
On to `CC(=O)c1ccc2c3c1[C@@H]1O[C@@H]1c1cccc(c1-3)[C@@H]1O[C@H]21`, for which the TGI in test [1] was greater than 85.8 µM; in test [2], 35.1 µM; in [3], 15 µM; in [4] it was 25.7 µM; in test [5] it was 23.3 µM; in test [6], 27.3 µM. The TGI in [7] is greater than 100 µM; in test [9], 34.5 µM; in test [10], 23.7 µM; in test [11], 31.1 µM.

Source of the values: PubChem BioAssay (NCI).
